From a melting point compilation (Tetko et al.; mined from patent text by program, amines drawn as free bases though some values may be those of a salt)

melting point [°C]	SMILES
160 to 161	COc1cc(COc2nn(Cc3ccccc3)cc2C(N)=O)ccc1OCc1nc(-c2ccco2)oc1C
51 to 52	Cc1ccccc1CNCCNCc1ccccc1C
121 to 123	NC(=O)C1=CN(CCC(=O)NCCc2ccccc2)C=CC1
133	CC(C(=O)O)c1cccc(C(=O)c2cc3sccc3s2)c1 (stereo not given)
124 to 125	O=C(O)CCCCCCCNC(=O)c1ccccc1NC(=O)c1ccccc1O
174 to 178	CCOCOC(=O)c1c(I)cc(I)c(NC(C)=O)c1I
153 to 155	COc1cc(Nc2nc3cccc(-c4cccc(C)c4)c3o2)cc(OC)c1OC
216 to 219	O=C(O)c1cc(=O)c2ccc(COc3ccc(OCc4ccc5ccccc5n4)cc3)cc2o1
129	CCOC(=O)c1c(O)c2cc(F)ccc2n(Cc2ccccc2)c1=O
> 265	CN1C(=O)CC[C@]2(C)c3ccc(-c4cc(C(C)(C)C)c(O)c(C(C)(C)C)c4)cc3CC[C@@H]12
185 to 187	CCn1c(=O)n(C2OC(CO)C(O)C2O)c2nc(N)[nH]c(=O)c21 (stereo not given)
140	COc1ccc(-c2cc(=O)n(CCc3ccccc3)nc2-c2ccc(OC)cc2)cc1
192	CCS(=O)(=O)c1cc(C(=O)NCC2CCCN2CC2=CCCCC2)c(OC)cc1N (stereo not given)
166	COc1ccc(C(O)CN2CCNC2=O)cc1OC (stereo not given)
115 to 116	Cc1ccc(C)n1C(=O)c1cc2cc(Br)ccc2o1
168 to 169	N#Cc1cc(Cl)ccc1-c1ccc(C(O)CCC(=O)O)cc1 (stereo not given)
229 to 230	COC(=O)C(O)CCNc1ncc(N)cc1N (stereo not given)
49 to 50	NCCCCCC(N)=O
57 to 70	CC(C)[C@H](S)C(=O)NC(C)(C)C(=O)N[C@@H](COCc1ccccc1)C(=O)O
113 to 114	N#CCOc1ccc(O)c([N+](=O)[O-])c1
172 to 173	Cc1cccc(-c2ccccc2)c1NC(=S)NC(=O)c1ccccc1
104 to 106	COc1ccccc1NC(=O)c1ccc(CO)cc1
118 to 121	CC(C)NC(=O)CCC(=O)c1ccccc1

melting point [°C]	SMILES
133 to 134	O=C(CCC(=O)N1CCC(c2ccc(Cl)cc2)CC1)c1ccc2c(c1)CCN(Cc1ccccc1)CC2
191 to 192	O=C(CCCO)Nc1cccc(/C=C/c2nc3ccccc3s2)c1
205 to 207	O=C(O)c1oc(-c2ccccc2Cl)cc(=O)c1Br
60	C=C(CC(=O)Nc1cc(Cl)cc(Cl)c1)C(=O)OCCCCCC
179	COc1cccc(C(=O)Nc2ccc(N3CCN(Cc4cccc(C#N)c4)CC3)cc2)c1-c1ccc(C(C)C)cc1
264 to 265	Nc1cc(C(=O)NNC(=O)Cc2cccc(O)c2)ccc1O
189 to 190	O=C(O)c1csc(-c2ccc(Cl)cc2)n1
55 to 56	CCCCCC(=O)N1C(CCCCC)NC(=O)CC1C(=O)O (stereo not given)
204 to 207	CSc1ccc(-n2c(-c3ccc(F)cc3)nc(SC)c(C#N)c2=O)cc1
155 to 156	O=C(c1ccc(Cl)cc1)c1ccc(-n2ccnc2)nc1
204 to 206	CN(C)Cc1ccc2c(c1)Cc1c(-c3cccs3)n[nH]c1-2
88 to 89	CCCCCCCCCC1(C)NC(=S)NC1=S (stereo not given)
178 to 180	COc1cc(Nc2c(C#N)cnc3cc(OCC(C)(C)CN(C)C)c(OC)cc23)c(Cl)cc1Cl
141 to 143	FC(F)(F)c1ccc(COc2ccnc(CSc3nc4cscc4[nH]3)c2)cc1
236 to 238	C(=C\c1cc(/C=C/c2ccc3cc[nH]c3c2)[nH]n1)/c1ccc(N2CCOCC2)cc1
134	CC(C)CCn1cc(-c2cnc3c(c2)N(Cc2c(F)ccc(F)c2Cl)CCN3)cn1
> 250	CNc1nc(C#N)c(C#N)nc1NC(C)(C)C
129 to 130	Cc1nnc(-c2ccc3occ(-c4ccc(OC(F)(F)F)cc4)c3c2)o1
135 to 137	COc1cc2nc(N3CCc4ccc([N+](=O)[O-])cc4C3)nc(N)c2cc1OC
75 to 76	CCn1cc(CN(C(=O)C2CCCc3ccccc32)c2ccc(C(C)C)cc2)cn1 (stereo not given)
120	CS(=O)(=O)c1nnc(-c2ccco2)s1
145 to 148	C=C(c1ccc(-n2ccnc2)nc1)C(O)(Cn1cncn1)c1ccc(F)cc1F (stereo not given)
38 to 43	COc1ccc(OC(CCCN2C3CCC2CNC3)c2ccc(C#N)cc2)cc1OC (stereo not given)

melting point [°C]	SMILES
68 to 70	Cc1ccc2c(c1)C(=O)CC2c1ccc(F)cc1 (stereo not given)
101 to 102	CCCCCC1=C(c2ccc(F)cc2)C(=NO)CC1
114 to 115	O=C(CCCc1ccc(-c2ccc(Cl)cc2)cc1)c1ccc(CN2CCCC2)cc1
132 to 134	CC#CCn1nnc2cc3c(=O)n(C(C)Cn4ncnn4)nnc3cc2c1=O (stereo not given)
208 to 212	CC#Cc1ccc(NC(=O)c2ccccc2NCc2ccc(=O)[nH]c2)cc1C(F)(F)F
128 to 130	Cn1c(-c2ccccc2F)nnc1S(C)(=O)=O
268 to 270	N#Cc1ccc2c(c1)S(=O)(=O)N=CN2C1CC1
192 to 194	O=C(CN1CCCCC1)Nc1ccc2cc3ccc(NC(=O)CN4CCCCC4)cc3nc2c1
177 to 178	Cc1cc(Cn2c(-c3ccccc3)nc(Cl)c2CC(=O)O)ccc1OCc1ccccc1
132 to 135	CC(NC(=O)c1ccccc1)c1c[nH]c(-c2ccccc2)n1 (stereo not given)
128 to 130	COc1ccc(OC)c(COc2ccc(S(=O)(=O)c3ccc(C)nc3Nc3c(C)cc(C)cc3C)cc2)c1
230 to 232	Nc1nnc2c3c(c(N4CCCCC4)nn12)CCCC3
208 to 209	Clc1cccc2c(CN3CCN(c4cc5ccccc5cn4)CC3)n[nH]c12
108 to 110	CSCC(=O)c1cc(C(C)(C)C)c(O)c(C(C)(C)C)c1
255 to 258	Cn1c(SCc2ccccc2)nc2c(c1=O)NCN2C(c1ccccc1)(c1ccccc1)c1ccccc1
64 to 65	CC(C)C(O)(C=Cc1ccc([N+](=O)[O-])cc1)CC(=O)OCc1ccccc1 (racemic)
309 to 311	CC1CC(=O)Nc2ncc3c(c21)CCCN3 (stereo not given)
189	O=c1[nH]c2ccccc2n1CCCN1CCC(O)(c2ccc(Cl)c(C(F)(F)F)c2)CC1
133 to 135	Cc1ccc2cc(NC(=O)c3cccc(CSc4cnccn4)c3)ccc2n1
155 to 162	Nc1nc(-c2cccc3ccccc23)co1
100 to 102	CCc1cc(NC(=O)N2CCN(c3cc(C)cc(C)c3)CC2)c(N2CCNCC2)nc1C
87 to 88.5	BrCc1cc(-c2ccccc2)cs1
99 to 101	CCc1nc(C#N)c(N2CCN(c3ccccc3)CC2)nc1C

melting point [°C]	SMILES
131 to 133	COC(=O)C(=C/c1ccccc1)/C(=C\c1cc(OC)c(OC)c(OC)c1)C(=O)O
186 to 187	CCN1C(=O)CCCc2c1ccc(Nc1ncc(Cl)c(Nc3ccc(N4CCN(C)CC4)cc3OC)n1)c2OC
77 to 79	c1ccc(-c2csc3ncnc(NCc4ccco4)c23)cc1
46 to 48	O=[N+]([O-])c1ccc(OC(F)(F)c2ccccc2)cc1
268 to 270	O=C(O)c1cc2cccc(I)c2s1
123 to 124	CN(C)CC1(c2cccc(C(F)(F)F)c2)CCN(C(=O)CN2CCN(c3ccccc3)CC2)CC1
136	C#CCOc1cc(Oc2cc(Cl)cc(Cl)c2)ncn1
87 to 90	COC(=O)C(O)CC1CCC(=O)N1 (stereo not given)
162 to 164	CN(c1ccc(Cl)cc1[N+](=O)[O-])S(=O)(=O)C=Cc1ccccc1
128 to 130	COc1cc(OCC(O)CN2CCN(c3ccccc3NC(C)=O)CC2)cc(OC)c1OC (stereo not given)
151 to 153	COC(=O)C1=C(C)N(C)C(C)=C(C(=O)OC)C1c1ccccc1
210 to 211	O=C(Cc1cnoc1-c1ccccc1)Nc1nc(-c2ccc(Cl)cc2)cs1
112 to 113	NC(=O)Cc1ccc2ccn(C3CCN(CCc4ccc(F)cc4)CC3)c2c1
158 to 160	Cc1ccc(-c2ccc3c(c2)C=C(CNc2ccc(CN(C)C4CCOCC4)cc2)CCO3)cc1
204 to 206	C[C@@H]1S[C@@H](C(=O)Nc2ccc(CN3CCSCC3)cc2)Cc2cc3c(cc2C1=O)OCO3
261 to 263	Oc1ccc(-c2ncc3ncc(-c4ccco4)cc3n2)cc1
178 to 179	CC1=C(/C=C/C(C)=C/C=C/C(C)=C\C(=O)O)C(C)(C)C(=O)CC1
111 to 113	CCCCCc1c(-c2ccc3c(Br)c(OCC#N)ccc3c2)oc2ccccc12
118 to 120	COC(=O)CCCCc1ccc(NC(=O)N(CCO)C2CCN(Cc3ccccc3)CC2)cc1
147 to 150	CC(c1cc2ccccc2o1)N(O)C(N)=O (stereo not given)
111 to 112	CCCOCC1(c2onc(-c3ccc(O)cc3)c2-c2ccccc2)CC1
186 to 187	CCCCn1c(COCC)nc2c(N)nc3ccc(-c4ccccc4)cc3c21
192 to 193	O=C1c2cc(Cl)ccc2N(N2CCCCC2)C2=NCCN12

SMILES	melting point [°C]
COc1cc(NC(=O)C2C(=O)N(C)C(=O)N(C)C2=O)ccc1Oc1nnc(C(C)(C)C)s1	178 to 179
CC12C=CC(=O)C=C1C(N=[N+]=[N-])CC1C2CCC2(C)C(=O)CCC12 (stereo not given)	168 to 170
CC(C)(C)P(=O)(O)CCCN	253 to 255
CCCN1C(=O)CC(=O)N(c2ccccc2)c2cc(Cl)ccc21	192 to 194
C#Cc1ccc2c(c1)C(c1ccccc1F)=NCc1c(C(=O)NC)ncn1-2	235 to 236
CN1C(=O)C(NC(=O)Oc2ccc([N+](=O)[O-])cc2)N=C(c2ccccc2F)c2ccccc21 (stereo not given)	202 to 204
CCCc1c(C(C)=O)c2ccc(C(N)=O)cc2n1Cc1ccccc1Cl	208 to 211
Nc1ccc2c(c1)OCC(CN1CC=C(c3c[nH]c4ccc(F)cc34)CC1)O2 (stereo not given)	172 to 174
